Experimental data taken from ChEMBL document CHEMBL5614421, “Structure-activity relationship study of Pseudellone C as anti-glioma agents by targeting TNF/TNFR signaling pathway” (Eur J Med Chem, 2024).
Activity calls are given as the source filed them. The rule behind the calls is not given here.

Columns and labels:
[1] = Drug concentration in C57BL/6J mouse brain at 9 mg/kg,iv administration measured after 30 mins by LC-MS analysis; format: ADME, organism-based; details: read-out: Ct
U-87 MG [2] = experiment: Induction of apoptosis in human U-87 MG cells assessed as viable cells at 20 uM incubated for 24 hrs in presence of R7050 by Annexin V-APC/7-AAD staining based flow cytometric analysis (reference value: 85 %); format: functional, U-87MG ATCC; details: read-out: Activity
LN-229 [3] = experiment: Induction of apoptosis in human LN-229 cells assessed as late apoptotic cells at 20 uM incubated for 24 hrs by Annexin V-APC/7-AAD staining based flow cytometric analysis (reference value: 3.56 %); format: functional
U-87 MG [4] = experiment: Induction of apoptosis in human U-87 MG cells assessed as early apoptotic cells at 20 uM incubated for 24 hrs in presence of R7050 by Annexin V-APC/7-AAD staining based flow cytometric analysis (reference value: 3.44 %); format: functional, U-87MG ATCC
U-87 MG [5] = experiment: Induction of apoptosis in human U-87 MG cells assessed as necrotic cells at 20 uM incubated for 24 hrs by Annexin V-APC/7-AAD staining based flow cytometric analysis (reference value: 3.85 %); format: functional, U-87MG ATCC
LN-229 [6] = experiment: Induction of apoptosis in human LN-229 cells assessed as necrotic cells at 20 uM incubated for 48 hrs by Annexin V-APC/7-AAD staining based flow cytometric analysis (reference value: 0.7 %); format: functional
U-87 MG [7] = experiment: Induction of apoptosis in human U-87 MG cells assessed as viable cells at 20 uM incubated for 12 hrs by Annexin V-APC/7-AAD staining based flow cytometric analysis (reference value: 94.6 %); format: functional, U-87MG ATCC; details: read-out: Activity
U-87 MG [8] = experiment: Induction of apoptosis in human U-87 MG cells assessed as late apoptotic cells at 20 uM incubated for 24 hrs by Annexin V-APC/7-AAD staining based flow cytometric analysis (reference value: 3.44 %); format: functional, U-87MG ATCC
LN-229 [9] = experiment: Induction of apoptosis in human LN-229 cells assessed as early apoptotic cells at 20 uM incubated for 24 hrs in presence of R7050 by Annexin V-APC/7-AAD staining based flow cytometric analysis (reference value: 0.91 %); format: functional
LN-229 [10] = experiment: Induction of apoptosis in human LN-229 cells assessed as early apoptotic cells at 10 uM incubated for 24 hrs by Annexin V-APC/7-AAD staining based flow cytometric analysis (reference value: 0.45 %); format: functional
LN-229 [11] = experiment: Induction of apoptosis in human LN-229 cells assessed as necrotic cells at 10 uM incubated for 24 hrs by Annexin V-APC/7-AAD staining based flow cytometric analysis (reference value: 0.56 %); format: functional
U-87 MG [12] = experiment: Induction of apoptosis in human U-87 MG cells assessed as late apoptotic cells at 20 uM incubated for 24 hrs in presence of R7050 by Annexin V-APC/7-AAD staining based flow cytometric analysis (reference value: 7.7 %); format: functional, U-87MG ATCC
[13] = Drug concentration in C57BL/6J mouse brain at 9 mg/kg,iv administration measured after 15 mins by LC-MS analysis; format: ADME, organism-based; details: read-out: Ct
LN-229 [14] = experiment: Induction of apoptosis in human LN-229 cells at 20 uM incubated for 24 hrs by Annexin V-APC/7-AAD staining based flow cytometric analysis (reference value: 4.47 +/- 1.09 %); format: functional
LN-229 [15] = experiment: Induction of apoptosis in human LN-229 cells assessed as upregulation of cleaved caspase-3 expression incubated for 24 hrs by Western blot analysis; format: functional, cell-based
LN-229 [16] = experiment: Induction of apoptosis in human LN-229 cells assessed as late apoptotic cells at 20 uM incubated for 24 hrs by Annexin V-APC/7-AAD staining based flow cytometric analysis (reference value: 5.1 %); format: functional
U-87 MG [17] = experiment: Induction of apoptosis in human U-87 MG cells assessed as upregulation of cleaved caspase-3 expression incubated for 24 hrs by Western blot analysis; format: functional, cell-based; details: U-87MG ATCC
U-87 MG [18] = experiment: Induction of apoptosis in human U-87 MG cells assessed as necrotic cells at 10 uM incubated for 24 hrs by Annexin V-APC/7-AAD staining based flow cytometric analysis (reference value: 0.21 %); format: functional, U-87MG ATCC
U-87 MG [19] = experiment: Induction of apoptosis in human U-87 MG cells assessed as necrotic cells at 20 uM incubated for 24 hrs in presence of R7050 by Annexin V-APC/7-AAD staining based flow cytometric analysis (reference value: 3.85 %); format: functional, U-87MG ATCC
U-87 MG [20] = experiment: Induction of apoptosis in human U-87 MG cells assessed as necrotic cells at 20 uM incubated for 24 hrs by Annexin V-APC/7-AAD staining based flow cytometric analysis (reference value: 1 %); format: functional, U-87MG ATCC
U-87 MG [21] = experiment: Induction of apoptosis in human U-87 MG cells assessed as upregulation of TNF-alpha gene expression incubated for 24 hrs by transcriptome sequencing analysis; format: functional, cell-based; details: U-87MG ATCC
U-87 MG [22] = experiment: Induction of apoptosis in human U-87 MG cells assessed as viable cells at 20 uM incubated for 24 hrs by Annexin V-APC/7-AAD staining based flow cytometric analysis (reference value: 85 %); format: functional, U-87MG ATCC; details: read-out: Activity
LN-229 [23] = experiment: Induction of apoptosis in human LN-229 cells at 20 uM incubated for 24 hrs in presence of R7050 by Annexin V-APC/7-AAD staining based flow cytometric analysis relative to control; format: functional
U-87 MG [24] = experiment: Antiproliferative activity against human U-87 MG cells assessed as inhibition of cell growth incubated for 68 hrs by CCK-8 assay; format: functional, cell-based, U-87MG ATCC
LN-229 [25] = experiment: Induction of apoptosis in human LN-229 cells assessed as necrotic cells at 20 uM incubated for 24 hrs by Annexin V-APC/7-AAD staining based flow cytometric analysis (reference value: 0.7 %); format: functional
U-87 MG [26] = experiment: Induction of apoptosis in human U-87 MG cells assessed as viable cells at 5 uM incubated for 24 hrs by Annexin V-APC/7-AAD staining based flow cytometric analysis (reference value: 94 %); format: functional, U-87MG ATCC; details: read-out: Activity
U-87 MG [27] = experiment: Induction of apoptosis in human U-87 MG cells assessed as early apoptotic cells at 20 uM incubated for 24 hrs by Annexin V-APC/7-AAD staining based flow cytometric analysis (reference value: 1.59 %); format: functional, U-87MG ATCC
U-87 MG [28] = experiment: Induction of apoptosis in human U-87 MG cells at 20 uM incubated for 24 hrs in presence of R7050 by Annexin V-APC/7-AAD staining based flow cytometric analysis relative to control; format: functional, U-87MG ATCC
U-87 MG [29] = experiment: Induction of apoptosis in human U-87 MG cells assessed as late apoptotic cells at 20 uM incubated for 12 hrs by Annexin V-APC/7-AAD staining based flow cytometric analysis (reference value: 3.44 %); format: functional, U-87MG ATCC
LN-229 [30] = experiment: Induction of apoptosis in human LN-229 cells assessed as late apoptotic cells at 20 uM incubated for 24 hrs by Annexin V-APC/7-AAD staining based flow cytometric analysis (reference value: 4.86 %); format: functional
U-87 MG [31] = experiment: Induction of apoptosis in human U-87 MG cells assessed as late apoptotic cells at 20 uM incubated for 24 hrs by Annexin V-APC/7-AAD staining based flow cytometric analysis (reference value: 7.7 %); format: functional, U-87MG ATCC
LN-229 [32] = experiment: Induction of apoptosis in human LN-229 cells assessed as viable cells at 20 uM incubated for 24 hrs by Annexin V-APC/7-AAD staining based flow cytometric analysis (reference value: 91.7 %); format: functional; details: read-out: Activity

CCCCCCCNC(=O)[C@H](Cc1c[nH]c2ccccc12)NC(=O)C(C)(c1c[nH]c2ccccc12)c1c[nH]c2ccccc12
concentration at 0.5 h [1]: 241 ng/g | viability at 20 µM (U-87 MG [2]): 87.6% | Activity (LN-229 [3]): 4.99% | Activity (U-87 MG [4]): 8.66% | Activity (U-87 MG [5]): 8.66% | Activity (LN-229 [6]): 1.9% | viability at 20 µM (U-87 MG [7]): 93.8% | Activity (U-87 MG [8]): 4.03% | Activity (LN-229 [9]): 1.48% | Activity (LN-229 [10]): 3.58% | Activity (LN-229 [11]): 1.95% | Activity (U-87 MG [12]): 2.87% | concentration at 0.25 h [13]: 91 ng/g | Activity (LN-229 [14]): 21.2% | Activity (LN-229 [15]): Dose-Dependent Effect | Activity (LN-229 [16]): 4.38% | Activity (U-87 MG [17]): Dose-Dependent Effect | Activity (U-87 MG [18]): 0.21% | Activity (U-87 MG [19]): 0.86% | Activity (U-87 MG [20]): 1.37% | Activity (U-87 MG [21]): Active | viability at 20 µM (U-87 MG [22]): 65.1% | Activity (LN-229 [23]): 22.79% | IC50 (U-87 MG [24]): 8.2 µM | Activity (LN-229 [25]): 0.87% | viability at 5 µM (U-87 MG [26]): 92.9% | Activity (U-87 MG [27]): 13.7% | Activity (U-87 MG [28]): 9.37% | Activity (U-87 MG [29]): 3.62% | Activity (LN-229 [30]): 7.62% | Activity (U-87 MG [31]): 10% | viability at 20 µM (LN-229 [32]): 81.7%
